Laboratory results published in patent publication US20170152245A1 (National Taiwan University, priority 2015, published 2017).
Like-named read-outs stand apart in the source and are kept apart here.

Key:
[1] = test system: human platelet suspension; assay: U46619-induced platelet aggregation in human platelet suspension; assay type: cell-based; conditions: for IC50: Homo sapiens; for shift of the concentration-response curve of U46619: nstpbp5185 2 and 3 μM with indomethacin, Ctkf6f2 1 μM; for U46619 needed to induce the full aggregation: platelets pretreated with 1 μM compound
[2] = test system: human platelet suspension; assay: Arachidonic acid-induced platelet aggregation in human platelet suspension; assay type: cell-based; conditions: AA 200 μM
Description: (§1) Human platelet suspension (PS) was prepared according to the method described previously. Briefly, blood sample, freshly obtained from healthy volunteers who had taken no medications during the preceding 2 weeks, was treated with acid citrate/dextrose (ACD) in a volume ratio of 9:1. After centrifugation at 120 g, 25° C. for 9 min, platelet-rich plasma was transferred into another plastic tube and incubated with heparin (6.4 U/ml) as well as prostaglandin E1 (1 μM). Platelets were spun down by centrifugation at 500 g, 25° C. for 8 min and subsequently washed two times with Tyrode solution (NaH2PO4 0.4 mM; NaCl 136.9 mM; KCl […]; NaHCO3 11.9 mM; CaCl2 2 mM; MgCl2 2.1 mM; glucose 11.1 mM; BSA 3.5 mg/ml; pH 7.35-7.4). The washed platelets were finally suspended in Tyrode's solution and the platelet count was adjusted to 3.75×10^8 platelets/ml. For platelet-rich plasma (PRP) preparation, whole blood was anticoagulated with 1/10 vol of sodium citrate (3.8%, w/v) and centrifuged at 150 g, 25° C. for 9 min.
(§2) Platelet aggregation was measured turbidimetrically with a Lumi-aggregometer (Payton Scientific) at 37° C. under stirring condition (900 rpm). Platelet suspensions were prewarmed to 37° C. for 2 min in a silicone-treated glass cuvette. Nstpbp5185 was added 3 min before the addition of platelet-aggregation inducers. The extent of platelet aggregation was determined by recording the increase of light transmission relative to that of control (maximal aggregation, as 100%) for 6 min after the addition of inducer. The final volume and platelet count for measuring platelet aggregation were 500 μl and 3×10^8/ml, respectively.

[3] = test system: human platelet-rich plasma; assay: Collagen-induced platelet aggregation in human platelet-rich plasma; assay type: cell-based
Description: as §1, §2

[4] = test system: mesenteric venules of mice; assay: Fluorescein sodium-induced platelet thrombus formation in mesenteric venules of mice; assay type: in vivo; conditions: for average time to occlusion (TTO): 10 μg/g i.v., mice; for occlusion time: i.v., 5 min after administration
Description: A modification of the method was used. Male ICR mice (12-14 g) were anesthetized with sodium pentobarbital (50 mg/kg, i.p.). […] Five min later, various doses of nstpbp5185 (2 and 4 μg/g), aspirin (150 and 250 μg/g), or DMSO (control) were administered by i.v. through other lateral tail vein. The injected volume of the nstpbp5185, aspirin, or DMSO (control) was smaller than 10 μl. A segment of the small intestine with its mesentery attached was exteriorized through a midline incision on the abdominal wall and placed onto a transparent plastic plate for microscopic observation. Frequent rinsing of the mesentery with warm isotonic saline kept at 37° C. was performed to prevent the mesentery from drying out. Microvessels in the mesentery were observed under transillumination from a halogen lamp. Venules with diameters of 30-40 μm were selected to be irradiated to produce a microthrombus. In the epi-illumination system, light from a 100-W mercury lamp was filtered through a filter (B-2A, Nikon, Tokyo, Japan) with a dichromic mirror (DM 510, Nikon). The filtered light eliminated wavelengths below 520 nm irradiated a microvessel through an objective lens (20×). The area of irradiation was about 100 μm in diameter on the focal plane. Ten minutes after administration of the dye, the irradiation by filtered light and a timer were simultaneously started, and thrombus formation was observed on a TV-monitor. Occlusion time was recorded as the time interval for inducing thrombus formation leading to cessation of blood flow.
After giving 50 μg/g fluorescein sodium, the irradiation of mesenteric venules induced thrombus formation which is consist of activated platelets and fibrin clots. […] In the vehicle-treated group, the average TTO was approximately 143.71±4.99 sec (n=17). The group pre-treated with compound 5185 (10 μg/g), the average TTO value was 208.67±6.99 sec (n=12).

human platelets [5] = assay: Platelet [Ca2+]i mobilization by Fura 2-AM fluorescence; assay type: cell-based; conditions: for collagen-evoked increase of [Ca2+]i: collagen 10 μg/ml, Fura-2-loaded platelets
Description: After centrifugating platelet-rich plasma at 500 g, 25° C. for 8 min, isolated platelets were resuspended in Ca^2+-free Tyrode solution. The platelet suspensions were protected from light and incubated with Fura 2-AM (5 μM) at 37° C. for 30 min. Human platelets were then prepared as described previously. The washed platelet count was adjusted to 3-4.5×10^8 platelets/ml. Finally, the external Ca^2+ concentration of the platelet suspensions was adjusted to 1 mM. The rise in [Ca^2+]i was measured using a fluorescence spectrophotometer (CAF 110, Jasco, Japan) at excitation wavelengths of 340 and 380 nm, and an emission wavelength of 500 nm. [Ca^2+]i was calculated from the fluorescence, using 224 nM as the Ca^2+-Fura 2 dissociation constant.

human platelets [6] = assay: Flow cytometric analysis of P-selectin expression; assay type: cell-based; conditions: for U46619-induced P-selectin expression: U46619 1 μM; for collagen-induced P-selectin expression: collagen 10 μg/ml
Description: […] Then the sample was further incubated with FITC-labeled anti-CD62P in the dark at room temperature. Prior to analysis, the volume was adjusted to 1 mL/tube with Tyrode's solution. The suspensions were immediately assayed by fluorescence activated cell sorter (Becton-Dickinson, FACScan System, San Joe, Calif.) using excitation and emission wavelength of 488 and 525 nm, respectively. Data were collected from 10000 platelets per experimental group. The level of P-selectin expression was expressed as mean fluorescence intensity.

[7] = test system: human platelet suspension; assay: Collagen-induced platelet aggregation in human platelet suspension; assay type: cell-based; conditions: collagen 10 μg/ml; for IC50: Platelet, washed human platelets, read-out: IC50 collagen-induced platelet aggregation in human PS
Description: as §1, §2

[8] = test system: receptor tyrosine kinases; assay: Receptor tyrosine kinases safety profile; assay type: biochemical; design: dose or concentration left out as unconfirmed
Description: These kinases or enzymatic assays were performed by MDS according to the standardized methods

[9] = test system: human platelet suspension; assay: Thromboxane B2 formation in human platelet suspension; assay type: cell-based
Description: Human platelet suspension (3.75×10^8/ml) was preincubated in the presence or absence of nstpbp5185 or aspirin for 3 min before the addition of collagen or AA. Six minutes after the addition of agonist, […] indomethacin and 2 mM EDTA were added to the reaction suspension. After centrifugation in an Eppendorf centrifuge at 14,000 g for 2 min, the thromboxane B2 (TXB2), the stable metabolite of TXA2, levels of the supernatant were measured using a competitive enzyme-immuno assay (EIA) kit according to the instructions of the manufacturer.

[10] = Platelet, U46619 1 μM, washed human platelets, read-out: IC50 U46619-induced aggregation
[11] = Homo sapiens, Platelet, collagen 10 μg/ml, read-out: inhibition of TXB2 compared to the control

Row | SMILES | IC50 [1, 10] [µM] | shift of the concentration-response curve of U46619 [1] | U46619 needed to induce the full aggregation [1] | IC50 [2] [µM] | average time to occlusion (TTO) [4] [s] | collagen-evoked increase of [Ca2+]i (human platelets [5]) | U46619-induced P-selectin expression (human platelets [6]) | collagen-induced P-selectin expression (human platelets [6]) | IC50 [7] [µM] | effects on receptor tyrosine kinases [8] | inhibition at 1 µM [9, 11] [%] | other results
1 | Cc1ccc(-c2nc3ccc(F)cc3n2Cc2cccc(F)c2)o1 [Ctkf6f2, 6-fluoro-1-(3-fluorobenzyl)-2-(5-methyl-2-furyl)benzimidazole] | 1.17 ± 0.23 | right-shift | around 2 μM | 3.2 ± 0.99 | 267.93 ± 12.64 | concentration-dependently inhibited | decreased | decreased | 3.4 ± 0.62 | little effects | 43.9 | inhibition at 1 µM ([1]; Platelet, human washed platelets, 1 μM compound, U46619 1 μM): 50%; IC50 ([3]; Homo sapiens, collagen 5 μg/ml, read-out: IC50 collagen-induced aggregation in platelet-rich plasma): 31.3 ± 7.68 µM; U46619-induced calcium mobilization (human platelets [5]; U46619 1 μM, 1 μM-3 μM compound): markedly inhibited; inhibition at 0.3 µM ([9]; Homo sapiens, Platelet, collagen 10 μg/ml, 0.3 μM, read-out: inhibition of TXB2 compared to the control): 33%; inhibition at 3 µM ([9]; Homo sapiens, Platelet, collagen 10 μg/ml, 3 μM, read-out: inhibition of TXB2 compared to the control): 64.7%; inhibition at 10 µM ([9]; Homo sapiens, Platelet, collagen 10 μg/ml, 10 μM, read-out: inhibition of TXB2 compared to the control): 73.5%
2 | Cc1ccc(-c2nc3ccccc3n2Cc2ccccc2)o1 [Example 6, 1-Benzyl-2-(5-methyl-2-furyl)benzimidazole] | ~2.5 | right-shift | 0.5 µM | 3.9 ± 0.2 | 208.67 ± 6.99 | markedly inhibited | significantly reduced | concentration-dependently reduced to baseline | ~1.3 | little effects | 52.6 | IC50 ([1]; Platelet, U46619-induced aggregation, platelet suspension, read-out: P.S(U46619) IC50): 2.45 µM; inhibition of aggregation induced by U46619 ([1]; human washed platelets, 1 μM compound, U46619 1 μM): could not effectively inhibit; IC50 ([3]; human PRP, data not shown, read-out: IC50 collagen-induced platelet aggregation in human PRP): 64.2 ± 2.5 µM; occlusion time within 70 min after administration ([4]; 4 μg g^−1 i.v.): 157.5 ± 12.5 s; time until occlusion time returned to the control value ([4]; 4 μg g^−1 i.v.): ≤ 90 min; occlusion time ([4]; 4 μg/g): 170.9 ± 28.0 s; occlusion time ([4]; first dose of 'respectively' (2 μg/g)): 110.5 ± 18.0 s; thrombin-evoked increase of [Ca2+]i (human platelets [5]; thrombin 0.1 U/ml, even at 60 μM): no effect; % inhibition collagen ([7]; human platelet suspension, preliminary, compound concentration not given): 71.2 (n = 2) %; TXB2 generation of AA-stimulated platelets ([9]; arachidonic acid 200 μM, 0.7, 2 and 6 μM): concentration-dependently inhibited; TXB2 generation of collagen-stimulated platelets ([9]; collagen 10 μg/ml, 0.7, 2 and 6 μM): concentration-dependently inhibited
